Results published in patent publication US20260308159A1, “BICYCLIC HETEROARYLAMIDES HAVING GPR68 MODULATING ACTIVITY” (RECURSION PHARMACEUTICALS, INC., priority 2023, published 2026).

Each molecule was assayed against T1, human GPR68 (Homo sapiens, UniProt Q15743) (assay: GPR68 Biochemical Assay (Promega GloSensor cAMP assay, GPR68 antagonism)). Details: HEK293T cells transiently expressing hGPR68, antagonism of pH 5.5 stimulated cAMP, 15 min, read-out: hGPR68 IC50.
T1 construct: encoding full-length human GPR68 (uniprot ID: Q15743); expressed in transfected cells; host or cells: HEK293T
T1 sequence (Q15743 whole entry): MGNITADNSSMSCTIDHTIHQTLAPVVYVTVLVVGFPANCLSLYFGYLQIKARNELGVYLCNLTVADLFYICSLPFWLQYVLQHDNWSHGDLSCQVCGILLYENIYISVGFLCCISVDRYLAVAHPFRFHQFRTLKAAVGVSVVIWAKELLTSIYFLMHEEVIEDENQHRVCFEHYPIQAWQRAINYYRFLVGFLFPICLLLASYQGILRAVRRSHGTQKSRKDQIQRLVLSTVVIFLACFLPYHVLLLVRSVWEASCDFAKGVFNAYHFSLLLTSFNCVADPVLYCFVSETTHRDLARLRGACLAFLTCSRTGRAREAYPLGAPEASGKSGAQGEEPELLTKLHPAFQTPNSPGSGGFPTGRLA
Format: cell-based
Summary of the method: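 HEK293T cells transiently co-transfected with full-length human GPR68 and GloSensor plasmids, preloaded 60 min with GloSensor substrate in pH 8.0 buffer. Compounds (9-point half-log series, top 50 μM final, 0.5% DMSO) added with pH 5.5 buffer (~EC80-90 stimulation); luminescence read after 15 min at room temperature. IC50 from sigmoidal fit of % inhibition.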

| Structure (SMILES) | IC50 [nM] |
| --- | --- |
| COCc1nn2c(C(=O)NCc3ccccc3)ccnc2c1C(N)=O [Compound 69, N7-benzyl-2-(methoxymethyl)pyrazolo[1,5-a]pyrimidine-3,7-dicarboxamide] | 50 to 500 |
| COCc1nn2c(C(=O)NC3CC4(C3)CC(F)(F)C4)ccnc2c1C(N)=O [Compound 126, N7-(2,2-difluorospiro[3.3]heptan-6-yl)-2-(methoxymethyl)pyrazolo[1,5-a]pyrimidine-3,7-dicarboxamide] | 50 to 500 |
| COCc1nn2c(C(=O)NC3CCCCC3)ccnc2c1C(N)=O [Compound 76, N7-cyclohexyl-2-(methoxymethyl)pyrazolo[1,5-a]pyrimidine-3,7-dicarboxamide] | 50 to 500 |
| CNCc1nn2c(C(=O)NC3Cc4ccccc4C3)ccnc2c1C(N)=O [Compound 30, N7-indan-2-yl-2-(methylaminomethyl)pyrazolo[1,5-a]pyrimidine-3,7-dicarboxamide] | 500 to 5000 |
| COCc1nn2c(C(=O)NC3CC(F)(F)C3)ccnc2c1C(N)=O [Compound 58, N7-(3,3-difluorocyclobutyl)-2-(methoxymethyl)pyrazolo[1,5-a]pyrimidine-3,7-dicarboxamide] | < 50 |
| COCc1nn2c(C(=O)N3CCN(c4ncccc4C(F)(F)F)CC3)ccnc2c1C(N)=O [Compound 89, 2-(methoxymethyl)-7-[4-[3-(trifluoromethyl)-2-pyridyl]piperazine-1-carbonyl]pyrazolo[1,5-a]pyrimidine-3-carboxamide] | 50000 to 100000 |
| COCc1nn2c(C(=O)NC3CCc4ccc(OC)cc4C3)ccnc2c1C(N)=O (centres unmarked) [Compound 73, 2-(methoxymethyl)-N7-(7-methoxytetralin-2-yl)pyrazolo[1,5-a]pyrimidine-3,7-dicarboxamide] | < 50 |
| CN1CC(c2nn3c(C(=O)NC4Cc5ccccc5C4)ccnc3c2C(N)=O)C1 [Compound 24, N7-indan-2-yl-2-(1-methylazetidin-3-yl)pyrazolo[1,5-a]pyrimidine-3,7-dicarboxamide] | 50000 to 100000 |
| CCCc1nn2c(C(=O)N[C@H]3C[C@@H](OC(F)(F)F)C3)ccnc2c1C(N)=O [Compound 137, 2-propyl-N7-[cis-3-(trifluoromethoxy)cyclobutyl]pyrazolo[1,5-a]pyrimidine-3,7-dicarboxamide] | < 50 |
| C[C@]1(F)C[C@H](NC(=O)c2ccnc3c(C(N)=O)cnn23)C1 [Compound 7, N7-(trans-3-fluoro-3-methyl-cyclobutyl)pyrazolo[1,5-a]pyrimidine-3,7-dicarboxamide] | 5000 to 50000 |
| Cc1cccc2c1CC(NC(=O)c1ccnc3c(C(N)=O)cnn13)C2 (centres unmarked) [Compound 2, N7-(4-methylindan-2-yl)pyrazolo[1,5-a]pyrimidine-3,7-dicarboxamide] | 50 to 500 |
| NC(=O)c1c(C2CC2)nc2c(C(=O)NC3Cc4cccnc4C3)ccnn12 (centres unmarked) [Compound 163, 2-cyclopropyl-N8-(6,7-dihydro-5H-cyclopenta[b]pyridin-6-yl) imidazo[1,2-b]pyridazine-3,8-dicarboxamide] | < 50 |

More lines, now with the values ahead:

| IC50 [nM] | Structure (SMILES) |
| --- | --- |
| < 50 | COCc1nn2c(C(=O)NC3Cc4ccccc4C3)cc(C)nc2c1C(N)=O [Compound 227, N7-indan-2-yl-2-(methoxymethyl)-5-methyl-pyrazolo[1,5-a]pyrimidine-3,7-dicarboxamide] |
| < 50 | NC(=O)c1c(C2CC2)nc2c(C(=O)N[C@H]3CCOc4cc(F)ccc43)ccnn12 [Compound 211, 2-cyclopropyl-N8-[(4S)-7-fluorochroman-4-yl]imidazo[1,2-b]pyridazine-3,8-dicarboxamide] |
| 50 to 500 | COCc1nn2c(C(=O)NC3Cc4nccn4C3)ccnc2c1C(N)=O (centres unmarked) [Compound 165, N7-(6,7-dihydro-5H-pyrrolo[1,2-a]imidazol-6-yl)-2-(methoxymethyl)pyrazolo[1,5-a]pyrimidine-3,7-dicarboxamide] |
| 50 to 500 | COCc1nn2c(C(=O)NCc3ccccc3OC)ccnc2c1C(N)=O [Compound 199, 2-(methoxymethyl)-N7-[(2-methoxyphenyl)methyl]pyrazolo[1,5-a]pyrimidine-3,7-dicarboxamide] |
| < 50 | COCc1nn2c(C(=O)N[C@H]3CCS(=O)(=O)c4ccccc43)ccnc2c1C(N)=O (single isomer, unassigned) [Compound 234] |
| < 50 | COCc1nn2c(C(=O)NC3COc4ccc(F)cc4C3)ccnc2c1C(N)=O (centres unmarked) [Compound 196, N7-(6-fluorochroman-3-yl)-2-(methoxymethyl)pyrazolo[1,5-a]pyrimidine-3,7-dicarboxamide] |
| < 50 | COCc1nn2c(C(=O)NC3COc4c(F)cc(F)cc43)ccnc2c1C(N)=O (centres unmarked) [Compound 191, N7-(5,7-difluoro-2,3-dihydrobenzofuran-3-yl)-2-(methoxymethyl)pyrazolo[1,5-a]pyrimidine-3,7-dicarboxamide] |
| 50 to 500 | CCOCc1nn2c(C(=O)N[C@H]3C[C@@H](OC(F)(F)F)C3)ccnc2c1C(N)=O [Compound 205, 2-(ethoxymethyl)-N7-[cis-3-(trifluoromethoxy)cyclobutyl]pyrazolo[1,5-a]pyrimidine-3,7-dicarboxamide] |
| < 50 | COCc1nn2c(C(=O)NC3COc4ncccc43)ccnc2c1C(N)=O (centres unmarked) [Compound 184, N7-(2,3-dihydrofuro[2,3-b]pyridin-3-yl)-2-(methoxymethyl)pyrazolo[1,5-a]pyrimidine-3,7-dicarboxamide] |

Same assay, conditions: hGPR68 IC50, HEK293T cells transiently expressing hGPR68, antagonism of pH 5.5 stimulated cAMP, 15 min

| IC50 [nM] | Structure (SMILES) |
| --- | --- |
| 50 to 500 | NC(=O)c1c(C2CCCO2)nn2c(C(=O)NC3CC(F)(F)C3)ccnc12 (centres unmarked) [Compound 43, N7-(3,3-difluorocyclobutyl)-2-tetrahydrofuran-2-yl-pyrazolo[1,5-a]pyrimidine-3,7-dicarboxamide] |
| < 50 | NC(=O)c1c(CO)nn2c(C(=O)N[C@H]3C[C@@H](OC(F)(F)F)C3)ccnc12 [Compound 141, 2-(hydroxymethyl)-N7-[cis-3-(trifluoromethoxy)cyclobutyl]pyrazolo[1,5-a]pyrimidine-3,7-dicarboxamide] |
